Laboratory results taken from patent US20210024498A1, “TETRAHYDROPYRROLE COMPOUND, PREPARATION METHOD THEREFOR, PHARMACEUTICAL COMPOSITION CONTAINING SAME, AND USE THEREOF” (MEDICONNS (SHANGHAI) BIOPHARMACEUTICAL CO., LTD, priority 2017, published 2021).

Key:
[1] = biological target: T1, D2 receptor (Homo sapiens, UniProt P14416); conditions: Bioorg. Med. Chem. 17 (2009) 1716-1723; cited from earlier work
T1 construct: expressed in transfected cells; host or cells: HEK293

[2] = biological target: T2, D4 receptor (Homo sapiens, UniProt P21917); conditions: Bioorg. Med. Chem. 17 (2009) 1716-1723; cited from earlier work
T2 sequence (P21917 1-419): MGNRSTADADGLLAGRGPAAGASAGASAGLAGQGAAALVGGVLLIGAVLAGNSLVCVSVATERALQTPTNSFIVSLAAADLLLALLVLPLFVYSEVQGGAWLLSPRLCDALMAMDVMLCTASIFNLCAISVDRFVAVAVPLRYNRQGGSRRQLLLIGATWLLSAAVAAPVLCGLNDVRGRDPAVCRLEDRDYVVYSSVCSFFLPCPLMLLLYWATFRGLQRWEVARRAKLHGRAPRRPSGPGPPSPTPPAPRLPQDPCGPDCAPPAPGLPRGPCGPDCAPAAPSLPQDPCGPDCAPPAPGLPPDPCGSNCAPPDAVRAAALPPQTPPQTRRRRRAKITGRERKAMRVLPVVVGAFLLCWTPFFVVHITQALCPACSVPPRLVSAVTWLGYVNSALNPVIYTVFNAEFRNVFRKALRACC

[3] = biological target: T1, D2 receptor; assay: D2 receptor affinity assay (radioligand competition, 3H-7-OH-DPAT); type: binding; conditions: cloned D2 receptor expressed in HEK293 cell line; 3H-7-OH-DPAT 1 nM
Method: (§1) Bioactivity Test • I. D2 receptor affinity assay: The affinity of the compound to D2 receptor was determined by radioligand competition assay, and the cloned D2 receptor was expressed in HEK293 cell line. • II. D2 receptor function assay: The ability of the compound to antagonize the D2 receptor was determined using a calcium mobilization assay (FLIPR). • III. DAT receptor function assay: The ability of the compound to inhibit DAT was determined by neurotransmitter transporter absorption assay.
• Experimental buffer: 50 mM Tris-HCl, pH 7.4, 5 mM MgCl2 • Washing buffer: 50 mM Tris-HCl pH 7.4, stored at 4° C. ready for use.
• The compound and positive control 7-OH-DPAT were serially diluted with DMSO, with the initial concentration of 2 mM and 4 times serial dilution, a total of 10 concentrations. 1 μL was transferred to the designated position of the 96-well plate. • 1 μL droperidol (final concentration 10 μM) was added to the positive control well. 1 μL DMSO was added to the negative control well.
• Receptor cell membrane was diluted to 10 μg/well with corresponding experimental buffer, with 100 μL cell membrane/well.
• 3H-7-OH-DPAT was diluted to 2 nM with corresponding experimental buffer, and the final concentration was 1 nM.
• After 100 μL of cell membrane and isotope were added, respectively, the reaction plate of the D2 receptor was incubated at room temperature for 1 hour. The GF/C filter plate was soaked in 0.3% PEI solution for more than half an hour. After the reaction was completed, the cell membrane was collected on the GF/C filter plate using the […], washed 4 times with cold washing buffer, and then dried in an oven at 50° C. for 1 hour. The dried GF/C filter plate was sealed at the bottom, 50 μL of scintillation fluid was added to each well and the well was sealed. Reads were obtained by MicroBeta and the data was analyzed using GraphPad Prism 5.0.
Ki=IC50/(1+isotope concentration/Kd)

[4] = biological target: T1, D2 receptor; assay: D2 receptor function assay, calcium mobilization (FLIPR); type: cell-based; conditions: HEK293, antagonism of D2 receptor
Method: as §1
• Cell line: HEK293 • DMEM medium (Invitrogen) • Fetal bovine serum (FBS, Invitrogen) • L-Glutamine (Invitrogen) G418 (Invitrogen) • Blasticidin (Invitrogen)
• Fluo-4 Direct Kit (Invitrogen)
• 250 mM Probenecid solution was formulated: according to the kit instructions, 1 mL of FLIPR buffer salt solution was added to 77 mg probenecid just before needed. • 2× (8 μM) Fluo-4 Direct™ loading buffer was formulated: the number of tubes in Fluo-4 Direct™ needed for the experiment was melted in advance. Just before needed, 10 ml of FLIPR buffer salt solution and 0.2 mL of 250 mM Probenecid solution were added to each tube and vortexed in dark for more than 5 minutes.
• a) One tube of cells was taken from the liquid nitrogen tank and quickly thawed in 37° C. water bath. • b) The cell suspension was added to a centrifuge tube to which the preheated 20 ml medium was added in advance. • c) The centrifuge tube was centrifuged at 1000 rpm for 5 minutes at room temperature. • d) The supernatant was slowly decanted to avoid affecting the precipitated cells. • e) The cells were resuspended with 10-30 ml medium by pipetting the cells gently with a pipette. • f) The viability and number of cells were calculated with the cell counter. • g) The cells were diluted to 1×10^5 cells/ml with medium, and inoculated in the 384-well polylysine coated cell plate at 20 μL/well. • h) The plate was incubated in an incubator at 5% CO2, 37° C. for 16 to 20 hours.
10 μL of experimental buffer salt solution was added into the cell plate according to the set program, and the fluorescence signal was read. 10 μL of agonist reference compound was further added at a given concentration to the cell plate and the fluorescence signal was read. After reading, the data was derived by “Max-Min” and “Read 90 to Maximum Allowed” methods in the software and EC80 of the corresponding cell line was calculated, and the reference compound with a concentration of 6× EC80 was prepared. • f) The FLIPR instrument software was run. 10 μL of the compound to be tested and the reference compound at a given concentration were added into the cell plate according to the set program, and the fluorescence signal was read. 10 μL of reference compound agonist was further added at a concentration of 6× EC80 to the cell plate and the fluorescence signal was read. • g) Data Analysis • Calculation formula for data in the project:
Inhibitor % activity=100−(signal value per well−average value for high dose control group of inhibitor)/(average value for DMSO control group−average value for high dose control group of inhibitor)*100%.

[5] = biological target: DAT (Homo sapiens, UniProt Q01959); assay: DAT transporter assay (neurotransmitter transporter absorption assay); type: cell-based
Sequence of DAT (Q01959 whole entry, species assumed): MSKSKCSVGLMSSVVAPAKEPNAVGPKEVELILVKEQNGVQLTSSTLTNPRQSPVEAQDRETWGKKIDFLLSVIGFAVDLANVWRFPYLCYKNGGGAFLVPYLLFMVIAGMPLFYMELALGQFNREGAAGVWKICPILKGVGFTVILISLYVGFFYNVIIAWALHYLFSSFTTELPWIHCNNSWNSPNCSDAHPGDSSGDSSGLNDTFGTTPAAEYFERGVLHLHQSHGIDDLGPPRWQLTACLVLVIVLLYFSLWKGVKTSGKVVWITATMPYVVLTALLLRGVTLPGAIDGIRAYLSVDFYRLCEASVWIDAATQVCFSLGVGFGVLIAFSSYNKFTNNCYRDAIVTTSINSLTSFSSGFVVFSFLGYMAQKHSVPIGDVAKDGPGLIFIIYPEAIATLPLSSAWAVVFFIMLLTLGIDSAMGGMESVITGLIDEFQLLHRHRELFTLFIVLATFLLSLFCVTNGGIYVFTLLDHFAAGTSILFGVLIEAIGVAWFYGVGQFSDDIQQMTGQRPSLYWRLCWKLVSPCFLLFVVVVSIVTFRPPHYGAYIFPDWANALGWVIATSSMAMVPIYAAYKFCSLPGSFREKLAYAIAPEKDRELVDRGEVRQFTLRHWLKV
Method: as §1
• HBSS1×, REPES 20 mM, BSA 0.1%.
• Lyophilized fluorescent dye 1 vial, Assay buffer 10 mL.
• BTCP—hydrochloride (Sigma)
• i) The medium was preheated in 37° C. water bath in advance for more than 30 minutes for later use. • j) The preheated medium was taken out, disinfected with 75% alcohol, and put into a biosafety cabinet. • k) The cultured cells were taken out from the […], and the medium was removed by a vacuum pump. 1× DPBS was added, incubated for a moment, and then removed by a vacuum pump. Appropriate amount of 0.05% trypsin-EDTA was added for cell digestion. The digestion was terminated by 10% FBS medium, and the cells were pipetted and dispersed. • l) The dispersed cells were transferred into a 50 mL centrifuge tube with a pipette.
• a) The reference compound was diluted in a ratio of 1:3 to 10 concentration gradients with the detection buffer containing 0.1% BSA, with the highest concentration being 2 μM. The compound to be tested was diluted to 20 uM with the detection buffer containing 0.1% BSA. • b) A centrifuge (750 rpm, 15 s) was used to spin off the culture solution in the cell culture plate, and the compound solution in step 1 was transferred to the cell culture plate (25 uL/well). • HC (High control): 25 μL of 0.1% BSA detection buffer containing 0.2% DMSO. • LC (Low control): 25 μL of solution containing 2 μM positive antagonist. • c) After centrifugation at 300 rpm for 15 seconds, the plate was incubated at 37° C. for 30 minutes. After the incubation with the compound was completed, a dye solution (25 μL/well) was added and incubated at 37° C. for 30 minutes.
Inhibitor % activity=100−(signal value per well−average value for LC well)/(average value for H well−average value for LC well)*100%.

[6] = tested on: Amphetamine-induced high locomotor activity in mice; assay: Amphetamine-induced high locomotor activity (LMA) in mice; type: in vivo; parameters: Distance resulting from the activity, First 30 min / Distance resulting from the activity, Last 30 min: unit not given here; conditions: Amphetamine 1.0 mg/kg s.c.; 5 mg/kg p.o. (low dose group; olanzapine positive control); male ICR mice
Method: The test compound MDC was a milky white powder and stored in a shade and cool place (formulated with 1% DMSO before use). […] Amphetamine, purchased from Sigma-Aldrich, was a white powder (formulated with normal saline before use). 1% DMSO was formulated by diluting pure DMSO (purity>99.5, purchased from Sigma) with normal saline.
(§2) Male ICR mice having weight 22±2 g were kept at 8 mice/cage with 12/12 hours light/dark cycle, temperature 23° C.±1° C., humidity 50% to 60%, free to eat and drink water.
The administration volume was 0.1 ml/10 g body weight; Amphetamine was freshly formulated with normal saline at a dose of 1.0 mg/kg and administered subcutaneously.
(§3) After one week of acclimation, mice were randomly divided into 6 groups according to their body weight: negative control group, model group, positive control group, and low dose group, medium dose group and high dose group for the test compound. 8-10 animals/group.
(§4) Group 1: Negative control group: Normal saline (s.c.)+1% DMSO (10.0 ml/kg, p.o.);
Group 2: Model group: Amphetamine (1.0 mg/kg, s.c.)+1% DMSO (10.0 ml/kg, p.o.);
Group 4: MDC low dose group: Amphetamine (1.0 mg/kg, s.c.)+MDC (5 mg/kg, p.o.);
Group 5: MDC medium dose group: Amphetamine (1.0 mg/kg, s.c.)+MDC (10 mg/kg, p.o.);
Group 6: MDC high dose group: Amphetamine (1.0 mg/kg, s.c.)+MDC (20 mg/kg, p.o.).
After administration, the animals were immediately placed in a locomotor activity box and recorded by Shanghai Jiliang animal video analysis system for 1 hour.
(§5) After the experiment, the activity of the animals within 1 hour was analyzed using the trajectory analysis software of Shanghai Jiliang animal video analysis system to obtain the total distance resulting from the activity.

[7] = tested on: PCP-induced high locomotor activity in mice; assay: Phencyclidine (PCP) induced high locomotor activity (LMA) in mice; type: in vivo; parameters: Distance resulting from the activity, First 30 min / Distance resulting from the activity, Last 30 min: unit not given here; conditions: PCP 5.0 mg/kg s.c.; 5 mg/kg p.o. (low dose group; olanzapine positive control); male ICR mice
Description: • 1. The effect of the compound on phencyclidine (PCP) induced high locomotor activity (LMA) in mice was detected.
The test compound MDC was milky white powder and stored in a shade and cool place (freshly formulated with 1% DMSO before use). […] Phencyclidine (PCP), purchased from Sigma Aldrich, was a grayish white powder (freshly formulated with normal saline before use). 1% DMSO was formulated by diluting pure DMSO (purity>99.5, purchased from Sigma-Aldrich) with normal saline.
as §2
The administration volume was 0.1 ml/10 g body weight; PCP was formulated with normal saline at a dose of 5 mg/kg.
The test compound MDC and olanzapine were administered by gavage and PCP was administered by subcutaneous injection.
as §3, §4
Group 2: Model group: PCP (5.0 mg/kg, s.c.)+1% DMSO (10.0 ml/kg, p.o.);
Group 4: MDC low dose group: PCP (5.0 mg/kg, s.c.)+MDC (5 mg/kg, p.o.);
Group 5: MDC medium dose group: PCP (5.0 mg/kg, s.c.)+MDC (10 mg/kg, p.o.);
Group 6: MDC high dose group: PCP (5.0 mg/kg, s.c.)+MDC (20 mg/kg, p.o.).
After oral administration, the animals were immediately placed in a locomotor activity box and recorded by Shanghai Jiliang ( ? ) animal video analysis system for 1 hour.
as §5

T1 sequence (P14416 whole entry): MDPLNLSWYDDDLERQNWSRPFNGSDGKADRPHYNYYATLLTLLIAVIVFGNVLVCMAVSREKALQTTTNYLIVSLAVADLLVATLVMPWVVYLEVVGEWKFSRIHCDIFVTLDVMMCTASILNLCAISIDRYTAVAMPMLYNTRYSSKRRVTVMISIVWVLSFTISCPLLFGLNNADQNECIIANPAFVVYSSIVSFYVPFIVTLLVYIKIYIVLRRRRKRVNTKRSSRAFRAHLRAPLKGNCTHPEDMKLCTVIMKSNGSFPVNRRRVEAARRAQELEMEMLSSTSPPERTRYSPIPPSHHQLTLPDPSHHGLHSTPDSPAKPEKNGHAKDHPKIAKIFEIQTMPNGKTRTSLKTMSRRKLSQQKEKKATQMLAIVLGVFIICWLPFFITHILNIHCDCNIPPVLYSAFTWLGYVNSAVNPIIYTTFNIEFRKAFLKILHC

Row | SMILES | IC50 [3] [nM] | IC50 [4] [nM] | IC50 [5] [nM] | also measured
1 | OC1(c2ccc(Cl)cc2)CCN(Cc2c[nH]c3ccccc23)C1 (stereo not shown) [compound 4] |  |  |  | Antagonism to D2 receptor (in words) [1]: substantially no antagonism to D2 receptor; D4 receptor antagonism (in words) [2]: moderate intensity of D4 receptor antagonism
2 | Oc1cccc(C2CCN(Cc3c[nH]c4ncccc34)C2)c1 (stereo not shown) [MDC-161502-034] | 2.02 | 1.99 | 685 | 
3 | c1ccc2c(CN3CCC(c4ccc5cn[nH]c5c4)C3)c[nH]c2c1 (stereo not shown) [MDC-161502-036] | 298 | 471 | 841 | 
4 | c1ccc2c(CN3CCC(c4ccc5[nH]nnc5c4)C3)c[nH]c2c1 (stereo not shown) [MDC-161502-040] |  |  | 52.8 | 
5 | Oc1cccc(C2CCN(Cc3n[nH]c4ccccc34)C2)c1 (stereo not shown) [MDC-161502-033] | 6.83 | 2.28 | 111 | 
6 | Oc1cc(C2CCN(Cc3c[nH]c4ccccc34)C2)ccc1F (stereo not shown) [MDC-161502-031] | 22.4 | 14.5 | 28.3 | 
7 | c1ccc2c(CN3CCC(c4cccc5[nH]ncc45)C3)c[nH]c2c1 (stereo not shown) [MDC-161502-038] | 10.2 | 6.22 | 87.5 | 
8 | c1ccc2c(CN3CCC(c4ccc5nc[nH]c5c4)C3)c[nH]c2c1 (stereo not shown) [MDC-161502-037] | 461 | 269 | 191 | 
9 | Cc1cc2c(s1)Nc1ccccc1N=C2N1CCN(C)CC1 [Olanzapine, olanzapine, reference compound] |  |  |  | Distance resulting from the activity, First 30 min [6]: 227653; Distance resulting from the activity, Last 30 min [6]: 158673; Distance resulting from the activity, First 30 min [7]: 208491; Distance resulting from the activity, Last 30 min [7]: 80518
